According to patent US9408848B2, “Fluorescent CDK inhibitors for treatment of cancer” (Georgetown University, priority 2008, dated 2016):
Entries after “also recorded” stand apart in the source; their conditions may differ. Read-outs that look alike come from different tables or passages of the source.

Columns and labels:
MDA-MB-231 [1] = assay: Cell viability assay (WST-1); format: cell-based, human; conditions: read-out: IC50 (concentration yielding 50% growth inhibition), MDA-MB-231, WST-1, 48 h
Procedure: (§1) (10%), 2 mM L-glutamine, and 50 μg/mL each of antibiotics, namely penicillin, streptomycin, and neomycin at 37° C. in a humidified incubator containing 5% CO2
(§2) Briefly human breast cancer cells were seeded into a 96-well plate at 3000 cells per well in DMEM containing 10% FBS. Following 24 hours attachment period, compounds were dissolved in DMSO and serially diluted in tissue culture media and added to the cells in triplicate, and incubated for 48 h at 37° C. Control cells were treated with equal amount of DMSO. After 48 h incubation, cell viability was measured by WST-1 assay according to the manufacturer's instructions (Roche). […] The formazan absorbance, which correlates to the number of living cells, was measured at 450 nm and 630 nm as reference filter using a microplate reader. (Ultramark, Microplate Imaging System, Bio-Rad). The IC50 was calculated from the graph of the log of the compound concentration versus the fraction of the surviving cells.

MCF-7 [2] = assay: Cell viability assay (WST-1); format: cell-based, human; conditions: MCF-7, WST-1, 48 h
Procedure: as §1, §2

CL 10.3 = assay: Effect on multidrug resistant cell lines, IC50 72 hours; format: cell-based; conditions: for IC50: 72 h, CL 10.3, Breast (MDR); for CL 10.3 IC50/MCF-7 IC50: ratio, 72 hours; for activity in multidrug resistance cell line: MCF7 versus CL 10.3
Source text: (§3) The effect of VMY-1-103 on multidrug resistant cell lines was studied and compared with paclitaxel. Table 4 represents the IC50 of the compounds in the individual cell lines along with the ratio of the difference.

MCF-7 [3] = assay: as above; format: cell-based; conditions: Homo sapiens, MCF7, 72 h; MCF-7, Breast
Source text: as §3

MDA-MB-231 [4] = assay: Cell cycle analysis by flow cytometry (propidium iodide); format: cell-based, human; conditions: for % G1 / % S / % Sub-G1: MDA-MB-231, 24 hrs, 5 μM
Procedure: (§4) 5 μM concentrations were used for all drugs tested. The cells were exposed to the vehicle (DMSO) or […] of the CDK inhibitors for 24 hrs. The cell cycle distribution was then assessed using standard procedures.

MCF-7 [5] = assay: as above; format: cell-based, human; conditions: for % G1 / % S / % Sub-G1: MCF-7, 24 hrs, 5 μM
Procedure: as §4

CDK7/cyclinH/MATI = molecular target: T1, CDK7/cyclinH/MATI (Homo sapiens, UniProt P50613); assay: Kinase assay ([γ-33P]-ATP, histone H1); format: biochemical; conditions: for inhibition at 0.1 µM: read-out: % inhibition of kinase activity, CDK7/cyclinH/MATI
T1 construct: purchased Millipore, Dundee, UK (screening service)
Procedure: . The final reaction was carried out in a 25 μL solution. The respective kinases (at […] were incubated with 8 mM MOPS (pH 7.0), 0.2 mM EDTA, 0.1 mg/ml histone H1, 10 mM MgAcetate and [γ-33P-ATP] (specific activity approximately 500 cpm/pmol, concentration as required). The reaction was then initiated by the addition of the MgATP mix. The reaction was stopped after 40 min of incubation by adding 5 μL of a 3% phosphoric acid solution. 10 μL of the reaction was spotted onto a P30 filter mat and washed 3 times for 5 min in 75 mM phosphoric acid and one in methanol prior to drying and counted radioactivity by scintillation counting. […]. Table 1 summarizes the cytotoxic effects of VMY compounds and its controls on breast cancer cell line.
(§5) Kinase selectivity of compounds VMY-1-101 and VMY-1-103 were screened at Millipore, Dundee, UK. Briefly assays were performed with a Biomek 2000 Laboratory Automation Workstation in a 96-well format (Beckman instruments, Palo Alto, Calif., U.S.A) for 40 min at ambient temperature in 25 μL incubations using [γ-^33P]-ATP. In a final reaction volume of 25 μL corresponding CDK/cyclin (h) (5-10 mU) was incubated with 8 mM MOPS pH 7.0, 0.2 mM EDTA, 0.1 mg/mL histone H1, 10 mM MgAcetate and [γ-^33P-ATP](specific activity approx. 500 cpm/pmol, concentration as required). The reaction was initiated by the addition of the MgATP mix. After incubation for 40 min at room temperature, the reaction was stopped by the addition of 5 μL of a 3% phosphoric acid solution. From the reaction, 10 μL was spotted onto a P30 filtermat and washed three times for 5 minutes in 75 mM phosphoric acid and once in methanol prior to dying and scintillation counting.

phospho-Cdc2 = assay: Western blot of G2/M cell cycle proteins; format: cell-based, human; conditions: MDA-MB-231, 10 μM, 1-24 h
Procedure: The expression levels principal component proteins, such as, phospho-Cdc2, Cdc2 and cyclin B were specific assessed.
Western blotting was performed according to literature procedure. […] Lysates were cleared by centrifugation at 12000 rpm for 15 min at 4° C. and protein was estimated by detergent compatible BCA protein assay kit (Pierce). Equivalent amounts of total proteins were resolved by SDS-PAGE (10%) and transferred to PVDF membrane. Membranes were blocked by 5% non-fat powdered milk in TBST overnight. Membranes were incubated with indicated primary antibodies for 2 hours followed by HRP-conjugated secondary antibodies for 1 hr and developed using enhanced chemiluminescence kit (Perkin Elmer).

CDK3/cyclinE = molecular target: T2, CDK3/cyclinE (Homo sapiens, UniProt Q00526); assay: Kinase assay ([γ-33P]-ATP, histone H1); format: biochemical; conditions: compound 0.1 μM
T2 construct: purchased Millipore, Dundee, UK (screening service)
Procedure: (§6) The final reaction was carried out in a 25 μL solution.
as §5, with “Briefly” for “Kinase selectivity of compounds VMY-1-101 and VMY-1-103 were screened at Millipore, Dundee, UK. Briefly”, “solution.” for “solution. From the reaction, 10 μL was spotted onto a P30 filtermat and washed three times for 5 minutes in 75 mM phosphoric acid and once in methanol prior to dying and scintillation counting.”

CDK1/cyclinB = molecular target: T3, CDK1/cyclinB (Homo sapiens, UniProt P06493); assay: Kinase assay ([γ-33P]-ATP, histone H1); format: biochemical; conditions: 0.1 µM
T3 construct: purchased Millipore, Dundee, UK (screening service)
Procedure: as §6
as §5, with “Briefly” for “Kinase selectivity of compounds VMY-1-101 and VMY-1-103 were screened at Millipore, Dundee, UK. Briefly”, “solution.” for “solution. From the reaction, 10 μL was spotted onto a P30 filtermat and washed three times for 5 minutes in 75 mM phosphoric acid and once in methanol prior to dying and scintillation counting.”

MDA-MB-231 cells [6] = assay: Apoptotic signaling, Western blot of apoptosis related proteins; format: cell-based, human
Procedure: In order to understand whether VMY-1-101 and VMY-1-103 compounds were able to induce apoptotic cell death, the expression of anti- and pro-apoptotic proteins in MDA-MB-231 cells following treatment with 10 μM drugs for 48 hours was evaluated first. […] This is further confirmed with proapoptotic 116 kDa poly (ADP-ribose) polymerase protein (PARP) into its 89-kDa fragments. […].
Western blotting was performed according to literature procedure. In brief, cell pellets were collected at the indicated times after treatment with compounds, suspended in 100 μL of lysis buffer (50 mM Tris-HCl, 150 mM NaCl, 1 mM EGTA, 1 mM EDTA, 20 mM NaF, 100 mM Na3VO4, 0.5% NP-40, 1% Triton X-100, 1 mM PMSF, 5 μg/ml aprotinin, 5 μg/ml leupeptin), vortexed twice and incubated in an ice bath for 30 min. Lysates were cleared by centrifugation at 12000 rpm for 15 min at 4° C. and protein was estimated by detergent compatible BCA protein assay kit (Pierce). Equivalent amounts of total proteins were resolved by SDS-PAGE (10%) and transferred to PVDF membrane. Membranes were blocked by 5% non-fat powdered milk in TBST overnight. Membranes were incubated with indicated primary antibodies for 2 hours followed by HRP-conjugated secondary antibodies for 1 hr and developed using enhanced chemiluminescence kit (Perkin Elmer).

MDA-MB-231 cells [7] = assay: Reversibility of antiproliferative effect (24 h/MC/48 h, cell cycle by flow cytometry); conditions: MDA-MB-231, 5 μM and 10 μM, 24 h then 48 h drug free medium
Procedure: The cell cycle distribution was then analyzed by flow cytometry.
The effect of CDK inhibitors on cell cycle progression was analyzed by flow cytometry. […] Cells were trypsinized, centrifuged (2000 rpm) and cell pellets were collected. […] The cell cycle distribution was evaluated on DNA plots using the Modfit software (Verity softwarehouse, Topsham, Me.).

T1 sequence (P50613 whole entry): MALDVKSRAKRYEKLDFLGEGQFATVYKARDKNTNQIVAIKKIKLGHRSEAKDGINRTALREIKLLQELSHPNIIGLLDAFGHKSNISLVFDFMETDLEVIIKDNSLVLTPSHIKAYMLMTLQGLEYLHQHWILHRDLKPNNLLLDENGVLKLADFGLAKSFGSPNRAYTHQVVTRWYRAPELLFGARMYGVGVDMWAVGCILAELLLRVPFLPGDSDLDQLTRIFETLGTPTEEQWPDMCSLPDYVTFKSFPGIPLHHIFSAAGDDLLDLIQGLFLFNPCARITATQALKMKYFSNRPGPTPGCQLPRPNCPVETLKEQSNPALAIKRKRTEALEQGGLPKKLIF
T1 sequence (P51946 whole entry partner): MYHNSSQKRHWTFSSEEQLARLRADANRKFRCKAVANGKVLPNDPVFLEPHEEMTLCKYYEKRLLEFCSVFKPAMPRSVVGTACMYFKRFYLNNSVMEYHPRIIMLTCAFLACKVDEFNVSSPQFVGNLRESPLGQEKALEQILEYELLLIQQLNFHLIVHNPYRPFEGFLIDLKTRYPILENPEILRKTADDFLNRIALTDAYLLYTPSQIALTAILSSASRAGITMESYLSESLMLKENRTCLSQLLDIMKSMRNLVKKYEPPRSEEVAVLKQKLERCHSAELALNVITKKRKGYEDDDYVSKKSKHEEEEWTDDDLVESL
T1 sequence (P51948 whole entry partner): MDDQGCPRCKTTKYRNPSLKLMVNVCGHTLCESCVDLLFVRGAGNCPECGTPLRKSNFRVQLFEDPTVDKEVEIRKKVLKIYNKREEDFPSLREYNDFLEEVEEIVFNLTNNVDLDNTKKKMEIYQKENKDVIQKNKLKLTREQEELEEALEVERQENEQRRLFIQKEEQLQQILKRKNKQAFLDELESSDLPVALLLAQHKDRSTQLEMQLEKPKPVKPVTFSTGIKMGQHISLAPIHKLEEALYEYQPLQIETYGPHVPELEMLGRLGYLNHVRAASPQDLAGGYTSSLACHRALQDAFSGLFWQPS
T2 sequence (Q00526 whole entry): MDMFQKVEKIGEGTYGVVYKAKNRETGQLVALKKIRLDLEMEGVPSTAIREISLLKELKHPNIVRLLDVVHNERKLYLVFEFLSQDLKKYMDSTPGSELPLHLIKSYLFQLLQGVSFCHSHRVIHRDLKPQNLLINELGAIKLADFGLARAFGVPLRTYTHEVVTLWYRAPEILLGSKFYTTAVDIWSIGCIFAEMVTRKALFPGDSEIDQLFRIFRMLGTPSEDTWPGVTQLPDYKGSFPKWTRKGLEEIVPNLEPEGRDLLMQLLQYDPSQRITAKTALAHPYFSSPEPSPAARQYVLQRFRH
T2 sequence (P24864 whole entry partner): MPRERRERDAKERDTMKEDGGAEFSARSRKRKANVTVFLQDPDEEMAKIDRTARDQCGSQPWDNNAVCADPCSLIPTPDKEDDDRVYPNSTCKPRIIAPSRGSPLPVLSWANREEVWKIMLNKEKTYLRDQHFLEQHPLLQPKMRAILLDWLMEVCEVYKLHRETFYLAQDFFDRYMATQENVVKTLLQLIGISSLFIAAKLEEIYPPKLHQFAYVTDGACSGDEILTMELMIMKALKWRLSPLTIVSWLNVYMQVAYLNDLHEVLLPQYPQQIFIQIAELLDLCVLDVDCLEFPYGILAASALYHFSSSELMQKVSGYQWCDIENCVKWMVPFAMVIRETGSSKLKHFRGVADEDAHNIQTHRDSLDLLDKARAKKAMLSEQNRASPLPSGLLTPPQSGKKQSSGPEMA
T3 sequence (P06493 whole entry): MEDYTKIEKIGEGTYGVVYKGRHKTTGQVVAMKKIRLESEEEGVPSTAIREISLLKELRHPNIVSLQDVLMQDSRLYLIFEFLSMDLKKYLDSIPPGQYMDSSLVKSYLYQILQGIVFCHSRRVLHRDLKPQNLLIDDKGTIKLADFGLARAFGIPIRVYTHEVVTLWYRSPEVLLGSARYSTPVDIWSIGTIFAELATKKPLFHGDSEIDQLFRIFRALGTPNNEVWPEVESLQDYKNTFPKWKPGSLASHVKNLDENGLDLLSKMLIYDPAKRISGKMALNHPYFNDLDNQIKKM
T3 sequence (P14635 whole entry partner): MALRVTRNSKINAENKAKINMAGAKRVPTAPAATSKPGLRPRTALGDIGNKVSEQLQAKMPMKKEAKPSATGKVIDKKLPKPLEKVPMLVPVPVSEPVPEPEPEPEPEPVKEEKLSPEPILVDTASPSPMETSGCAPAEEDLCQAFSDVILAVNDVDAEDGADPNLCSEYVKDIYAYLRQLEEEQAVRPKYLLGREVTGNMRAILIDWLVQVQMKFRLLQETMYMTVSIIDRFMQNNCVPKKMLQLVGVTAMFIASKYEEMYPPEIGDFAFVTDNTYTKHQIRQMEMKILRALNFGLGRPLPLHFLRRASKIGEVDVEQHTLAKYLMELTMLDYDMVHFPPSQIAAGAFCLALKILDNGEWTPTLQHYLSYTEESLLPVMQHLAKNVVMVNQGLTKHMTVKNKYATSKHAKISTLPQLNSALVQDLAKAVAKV

SMILES | IC50 (MDA-MB-231 [1]; Homo sapiens) | IC50 (CL 10.3) | CL 10.3 IC50/MCF-7 IC50 (CL 10.3) | IC50 (MCF-7 [3]) | % G1 (MDA-MB-231 [4]) | % S (MDA-MB-231 [4]) | % Sub-G1 (MDA-MB-231 [4]) | % G1 (MCF-7 [5]) | % S (MCF-7 [5]) | % Sub-G1 (MCF-7 [5]) | expression of phospho-Cdc2 (T161, Y15) (phospho-Cdc2) | other results
CN(C)c1cccc2c(S(=O)(=O)NCCN)cccc12 [Dansyl ethylenediamine, reference compound] | > 100 µM | – | – | – | – | – | – | – | – | – | – | IC50 (MCF-7 [2]; Homo sapiens, MCF7, read-out: IC50 (concentration yielding 50% growth inhibition)): > 100 µM
CC(=O)O[C@H]1C(=O)[C@@]2(C)[C@H]([C@H](OC(=O)c3ccccc3)[C@]3(O)C[C@H](OC(=O)[C@H](O)[C@@H](NC(=O)c4ccccc4)c4ccccc4)C(C)=C1C3(C)C)[C@]1(OC(C)=O)CO[C@@H]1C[C@@H]2O [Paclitaxel, reference compound] | – | 47.5 µM | 2375 | 0.002 µM | – | – | – | – | – | – | – | –
CC(C)[C@H](CO)Nc1nc(Nc2ccc(C(=O)O)c(Cl)c2)c2ncn(C(C)C)c2n1 [Purvalanol B, reference compound] | – | – | – | – | 58.69 ± 0.54% | 29.86 ± 0.70% | 1.19 ± 0.01% | 64.37 ± 0.57% | 20.54 ± 0.57% | 1.10 ± 0.03% | no affect on the phospho-Cdc2 expression; also recorded: does not show any affect on expression of phosphor-Cdc2 | IC50 (MDA-MB-231 [1]): > 100 µM; IC50 (MCF-7 [2]; read-out: IC50 (concentration yielding 50% growth inhibition)): > 100 µM; % inhibition of kinase activity, CDK7/cyclinH/MATI (CDK7/cyclinH/MATI; compound 0.1 μM): 66 ± 1%; % inhibition of kinase activity, CDK3/cyclinE (CDK3/cyclinE): 89 ± 0%; % inhibition of kinase activity, CDK1/cyclinB (CDK1/cyclinB): 78 ± 6%
CC[C@H](CO)Nc1nc(NCc2ccccc2)c2ncn(C(C)C)c2n1 [Roscovitine, 2-(R)-(1-ethyl-2-hydroxyethylamino)-6-benzylamino-9-isopropylpurine, reference compound] | – | – | – | – | 57.59 ± 0.44% | 26.29 ± 0.32% | 1.22 ± 0.06% | 63.83 ± 0.58% | 19.88 ± 0.74% | 0.73 ± 0.02% | – | change in apoptosis protein levels (MDA-MB-231 cells [6]; MDA-MB-231, even at 40 μM): no change in protein levels; inhibition at 0.1 µM (CDK7/cyclinH/MATI): 26 ± 5%; reversibility of G2/M arrest / antiproliferative effect (MDA-MB-231 cells [7]): went back to the normal stage after post incubation
CC(C)[C@H](CO)Nc1nc(Nc2ccc(C(=O)NCCNS(=O)(=O)c3cccc4c(N(C)C)cccc34)c(Cl)c2)c2ncn(C(C)C)c2n1 [VMY-1-103, 2-Chloro-N-[2-(5-dimethylamino-naphthalene-1-sulfonylamino)-ethyl]-4-[2-(1-hydroxymethyl-2-methyl-propylamino)-9-isopropyl-9H-purin-6-ylamino]-benzamide] | 4.06 ± 1.32 µM | 44.3 µM | 9.8 | 4.5 µM | 51.87 ± 0.80% | 25.15 ± 0.53% | 2.17 ± 0.18% | 61.02 ± 0.28% | 16.26 ± 0.24% | 2.09 ± 0.08% | decrease the phosphorylation level of G2/M checkpoint proteins; also recorded: time-dependent decrease in expression of phospho-Cdc2 | effect on cell cycle progression (G2/M phase) (MDA-MB-231 [4]; MDA-MB-231, 5, 10 μM, 24 hrs): induced the cell cycle progression in G2/M phase; effect on cell cycle progression (G2/M phase) (MCF-7 [5]; MCF-7, 5, 10 μM, 24 hrs): induced the cell cycle progression in G2/M phase; PARP cleavage (MDA-MB-231 cells [6]; MDA-MB-231, 10 μM, 48 hours): moderate cleavage of the 116-kDa full length PARP into an 89-kDa fragment; protein level of full length caspase 3 and 7 (MDA-MB-231 cells [6]; MDA-MB-231, 10 μM, 48 hours): decrease in protein level of full length caspase 3 and 7; inhibition at 0.1 µM (CDK7/cyclinH/MATI; compound 0.1 μM): 69 ± 2%; activity in multidrug resistance cell line (CL 10.3): moderate activity in a multidrug resistance cell line; activity in multidrug resistance cell line (CL 10.3; listed as VMY-103): comparable activity in both cell lines; substrate for p-glycoprotein (CL 10.3; inferred from MDR cell line (Table 4)): not a substrate for p-glycoprotein
